The subject of data set [1] is lambsquarter (Chenopodium album). Description: Postemergence herbicidal activity. It counts as in vivo. As to conditions: post-emergent, 140 g ai/ha, after 14 days; for pest or weed control at 140 g/ha: Chenopodium album, post-emergence, 336 h, read-out: % Control CHEAL. Summed up: (§1)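 Plants grown 7-21 days in greenhouse (about 15 h photoperiod, 23-29° C day, 22-28° C night) to first or second true leaf stage. Compounds in acetone/water/isopropanol/DMSO carrier with crop oil concentrate and Triton X-155 sprayed overhead at 187 L/ha; controls received solvent blank. Plants sub-irrigated afterwards; dose responses analysed by probit analysis.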

Data set [2] has as its system redroot pigweed (Amaranthus retroflexus). The experiment in a line: Postemergence herbicidal activity. The format is in vivo. The following applies: post-emergent, 140 g ai/ha, after 14 days; for pest or weed control at 140 g/ha: Amaranthus retroflexus, post-emergence, 336 h, read-out: % Control AMARE. Summed up: as §1
Data set [3] concerns velvetleaf (Abutilon theophrasti). The experiment in a line: Postemergence herbicidal activity. The format is in vivo. The following applies: post-emergent, 140 g ai/ha, after 14 days; for pest or weed control at 140 g/ha: Abutilon theophrasti, post-emergence, 336 h, read-out: % Control ABUTH. Summed up:
as §1

Data set [4] has as its system Cyperus difformis. The experiment in a line: Herbicidal activity in transplanted paddy rice. The format is in vivo. The following applies: Cyperus difformis, 504 h, paddy water application, after 3 weeks, read-out: % Control CYPDI; for pest or weed control at 35 g/ha: 35 g ai/ha. Here is the method:
(§2) Weed seeds or nutlets of the desired test plant species were planted in puddled soil (mud) prepared by mixing a non-sterilized mineral soil (28 percent silt, 18 percent clay, and 54 percent sand, with a pH of about 7.3 to 7.8 and an organic matter content of about 1.0 percent) and water at a ratio of 100 kg of soil to 19 L of water. The prepared mud was dispensed in 250 mL aliquots into 480 mL non-perforated plastic pots with a surface area of 91.6 square centimeters leaving a headspace of 3 centimeters in each pot. […] Seedlings at the second or third leaf stage of growth were transplanted into 650 mL of mud contained in 960 mL non-perforated plastic pots with a surface area of 91.6 square centimeters 4 days prior to herbicide application. The paddy was created by filling the 3 centimeter headspace of the pots with water. When required to ensure good germination and healthy plants, a fungicide treatment and/or other chemical or physical treatment was applied. The plants were grown for 4-14 days in a greenhouse with an approximate 14 hour photoperiod which was maintained at about 29° C. during the day and 26° C. during the night. Nutrients were added as Osmocote (17:6:10, N:P:K+minor nutrients) at 2 g per pot. Water was added on a regular basis to maintain the paddy flood, and supplemental lighting was provided with overhead metal halide 1000-Watt lamps as necessary. The plants were employed for testing when they reached the second or third true leaf stage. A weighed amount, determined by the highest rate to be tested, of each test compound was placed in a 120 mL glass vial and was dissolved in 20 mL of acetone to obtain concentrated stock solutions. […] Application rates of ½×, ¼×, ⅛× and 1/16× of the high rate were obtained by injecting an appropriate amount of the stock solution into the aqueous layer of the paddy. Control plants were treated in the same manner with the solvent blank. The treated plants and control plants were placed in a greenhouse as described above and water was added as needed to maintain a paddy flood.

The subject of data set [5] is Echinochloa crus-galli. The experiment in a line: Herbicidal activity in transplanted paddy rice. It counts as in vivo. The following applies: Echinochloa crus-galli, 504 h, paddy water application, after 3 weeks, read-out: % Control ECHCG; for pest or weed control at 35 g/ha: 35 g ai/ha. On the procedure: as §2
The subject of data set [6] is Monochoria vaginalis. Description: Herbicidal activity in transplanted paddy rice. It counts as in vivo. The following applies: Pontederia vaginalis, 504 h, paddy water application, after 3 weeks, read-out: % Control MOOVA; for pest or weed control at 35 g/ha: 35 g ai/ha. Here is the method:
as §2

Data set [7] relates to Scirpus juncoides. Description: Herbicidal activity in transplanted paddy rice. The format is in vivo. As to conditions: Schoenoplectiella juncoides, 504 h, paddy water application, after 3 weeks, read-out: % Control SCPJU; for pest or weed control at 35 g/ha: 35 g ai/ha. On the procedure:
as §2

The test system of data set [8] is rice (Orysa sativa var. Japonica). Description: Herbicidal activity in transplanted paddy rice. The format is in vivo. As to conditions: Oryza sativa, 504 h, transplant rice (crop), paddy water application, after 3 weeks; for pest or weed control at 35 g/ha: 35 g ai/ha. On the procedure: as §2
In data set [9] the test system is Galium aparine. The experiment in a line: Postemergence herbicidal activity in cereal crops. The format is in vivo. The following applies: post-emergent, 17.5 g ai/ha, after 20-22 days; for pest or weed control at 17.5 g/ha: Galium aparine, post-emergence, 480 h, read-out: % Control GALAP. Summed up: (§3)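 Greenhouse plants at the second or third true leaf stage are sprayed postemergence by track sprayer delivering 187 L/ha. Spray solution is an acetone/water/isopropanol/DMSO mixture with crop oil concentrate and Triton X-77. Treated plants are kept at about 18 °C day/17 °C night under a ~14 h photoperiod with sub-irrigation; blank-sprayed plants serve as controls.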

The subject of data set [10] is Lamium purpureum. Description: Postemergence herbicidal activity in cereal crops. It counts as in vivo. The following applies: post-emergent, 17.5 g ai/ha, after 20-22 days; for pest or weed control at 17.5 g/ha: Lamium purpureum, post-emergence, 480 h, read-out: % Control LAMPU. Summed up:
as §3

In data set [11] the test system is Papaver rhoeas. The experiment in a line: Postemergence herbicidal activity in cereal crops. It counts as in vivo. The following applies: post-emergent, 17.5 g ai/ha, after 20-22 days; for pest or weed control at 17.5 g/ha: Papaver rhoeas, post-emergence, 480 h, read-out: % Control PAPRH. Summed up: as §3
The subject of data set [12] is Veronica persica. The experiment in a line: Postemergence herbicidal activity in cereal crops. As to conditions: post-emergent, 17.5 g ai/ha, after 20-22 days; for pest or weed control at 17.5 g/ha: Veronica persica, post-emergence, 480 h, read-out: % Control VERPE. It counts as in vivo. Summed up: as §3
Data set [13] relates to barley (Hordeum vulare). The experiment in a line: Postemergence herbicidal activity in cereal crops. As to conditions: crop, post-emergent, 17.5 g ai/ha, after 20-22 days; for pest or weed control at 17.5 g/ha: Hordeum, post-emergence, 480 h, read-out: % Control HORVS. The format is in vivo. Summed up: as §3
The subject of data set [14] is wheat (Triticum aestivum). The experiment in a line: Postemergence herbicidal activity in cereal crops. As to conditions: crop, post-emergent, 17.5 g ai/ha, after 20-22 days; for plant injury at 17.5 g/ha: Triticum aestivum, post-emergence, 480 h, read-out: % Control TRZAS. The format is in vivo. Summed up: as §3

The results in this text go back to patent publication US20070179060A1, “6-(Poly-substituted aryl)-4-aminopicolinates and their use as herbicides” (priority 2006, published 2007).

Molecule `CCN(CC)c1c(Cl)ccc(-c2cc(N)c(Cl)c(C(=O)OC)n2)c1F` [Compound 17, 4-Amino-3-chloro-6-[4-chloro-3-(diethylamino)-2-fluorophenyl]pyridine-2-carboxylic acid, methyl ester] came in with a melting point of 120 to 121 °C. In [1], the pest or weed control at 140 g/ha is 100%. In addition, the pest or weed control at 140 g/ha in data set [2] was found to be 100%. In addition, the pest or weed control at 140 g/ha in data set [3] was determined as 100%. Further, in data set [4], the pest or weed control at 35 g/ha is 100%. In addition, the pest or weed control at 35 g/ha in [5] is 70%. For the same molecule, the pest or weed control at 35 g/ha in data set [6] was determined as 100%. Further, in data set [7], the pest or weed control at 35 g/ha turned out to be 90%. The same molecule yielded a pest or weed control at 35 g/ha in data set [8] of 0%. In addition, in data set [9], the pest or weed control at 17.5 g/ha was 80%. Moreover, the pest or weed control at 17.5 g/ha in data set [10] stood at 100%. Also, the pest or weed control at 17.5 g/ha in data set [11] was determined as 100%. Further, the pest or weed control at 17.5 g/ha in data set [12] is 99%. For the same molecule, the pest or weed control at 17.5 g/ha in data set [13] was found to be 0%. Further, the plant injury at 17.5 g/ha in data set [14] stood at 0%.

Regarding `CNc1c(Cl)ccc(-c2cc(N)c(Cl)c(C(=O)OC)n2)c1F` [Compound 38, 4-Amino-3-chloro-6-[4-chloro-2-fluoro-3-(methylamino)phenyl]pyridine-2-carboxylic acid, methyl ester], the melting point lay within 148 to 149 °C. Moreover, in data set [1], the pest or weed control at 140 g/ha is 100%. The pest or weed control at 140 g/ha in data set [2] was 100%. In data set [3], the pest or weed control at 140 g/ha stood at 100%. Moreover, the pest or weed control at 70 g/ha in [4] (70 g ai/ha) stood at 100%. In data set [5] (70 g ai/ha), the pest or weed control at 70 g/ha was 50%. In data set [6] (70 g ai/ha), the pest or weed control at 70 g/ha worked out at 100%. Moreover, the pest or weed control at 70 g/ha in [7] (70 g ai/ha) turned out to be 95%. The molecule further showed a pest or weed control at 70 g/ha in data set [8] (70 g ai/ha) of 0%. Also, the pest or weed control at 17.5 g/ha in [9] came to 85%. In [10], the pest or weed control at 17.5 g/ha stood at 95%. For the same molecule, in data set [11], the pest or weed control at 17.5 g/ha was found to be 100%. Further, the pest or weed control at 17.5 g/ha in data set [12] stood at 99%. For the same molecule, the pest or weed control at 17.5 g/ha in data set [13] was 0%. The plant injury at 17.5 g/ha in [14] was found to be 5%.

As to `CCCCOC(=O)c1nc(-c2ccc(Cl)c(C(C)F)c2F)cc(N)c1Cl` (centres unmarked) [Compound 91, 4-Amino-3-chloro-6-[4-chloro-2-fluoro-3-(1-fluoroethyl)phenyl)pyridine-2-carboxylic acid, butyl ester], the pest or weed control at 140 g/ha in [1] was 100%; in data set [2], 100%; in data set [3], 95%. Also, the pest or weed control at 35 g/ha in [4] came to 100%; in [5], 99%; in data set [6], 100%; in data set [7], 99%; in data set [8] it was 0%. Further, the pest or weed control at 17.5 g/ha was 90% in data set [9]; 100% in data set [10]; 60% in data set [11]; 45% in data set [12]; 10% in [13]. The plant injury at 17.5 g/ha in [14] was found to be 20%.

With `CCCCOCCOC(=O)c1nc(-c2ccc(Cl)c(OC)c2F)cc(N)c1Cl` [Compound 92, 4-Amino-3-chloro-6-(4-chloro-2-fluoro-3-methoxyphenyl)pyridine-2-carboxylic acid, 2-butoxy-ethyl ester], the melting point lay within 72 to 74 °C. The “% Control CHEAL” value in data set [1] is given as 100%. The “% Control AMARE” value in [2] is 100%. The “% Control ABUTH” value in [3] came out at 100%. Also, in data set [4] (17.5 g ai/ha), the pest or weed control at 17.5 g/ha was 99%. Further, the pest or weed control at 17.5 g/ha in data set [5] (17.5 g ai/ha) was 40%. Moreover, the pest or weed control at 17.5 g/ha in [6] (17.5 g ai/ha) came out at 100%. Also, in [7] (17.5 g ai/ha), the pest or weed control at 17.5 g/ha came to 90%. Moreover, the pest or weed control at 17.5 g/ha in [8] (17.5 g ai/ha) was 0%. For the same molecule, the “% Control GALAP” value in data set [9] stood at 99%. Also, in data set [10], the “% Control LAMPU” value worked out at 100%. Further, in data set [11], the “% Control PAPRH” value is 95%. The “% Control VERPE” value in [12] is 30%. The “% Control HORVS” value in data set [13] is 0%. Moreover, the “% Control TRZAS” value in data set [14] is reported as 0%.

As to `COc1c(Br)ccc(-c2cc(N)c(Cl)c(C(=O)O)n2)c1F` [Compound 120, 4-Amino-6-(4-bromo-2-fluoro-3-methoxyphenyl)-3-chloropyridine-2-carboxylic acid], the melting point was in the range of 176 to 177 °C. Also, in data set [1], the pest or weed control at 140 g/ha is 95%. For the same molecule, the pest or weed control at 140 g/ha in data set [2] came out at 90%. Besides, the pest or weed control at 140 g/ha in data set [3] was found to be 100%. The pest or weed control at 35 g/ha in [4] came out at 100%. The pest or weed control at 35 g/ha in data set [5] came out at 40%. Besides, in data set [6], the pest or weed control at 35 g/ha turned out to be 100%. In addition, in [7], the pest or weed control at 35 g/ha was found to be 95%. In data set [8], this molecule registered a pest or weed control at 35 g/ha of 0%. Moreover, the pest or weed control at 17.5 g/ha in [9] was determined as 80%. Moreover, in data set [10], the pest or weed control at 17.5 g/ha amounted to 95%. Further, the pest or weed control at 17.5 g/ha in data set [11] came to 95%. In [12], the pest or weed control at 17.5 g/ha turned out to be 50%. Also, the pest or weed control at 17.5 g/ha in data set [13] was 0%. Also, the plant injury at 17.5 g/ha in [14] came out at 0%.

Usually melting point stands for the temperature of the solid-liquid transition.
